Broadly, the IC50 is the concentration needed to halve the response being measured. Read a high IC50 as lower potency.

43 molecules from patent US11059786B2, “Aminopyridine compounds and methods for the preparation and use thereof” (Cortexyme, Inc., priority 2017, dated 2021) can be followed below.

T1 sequence (P95493 230-664): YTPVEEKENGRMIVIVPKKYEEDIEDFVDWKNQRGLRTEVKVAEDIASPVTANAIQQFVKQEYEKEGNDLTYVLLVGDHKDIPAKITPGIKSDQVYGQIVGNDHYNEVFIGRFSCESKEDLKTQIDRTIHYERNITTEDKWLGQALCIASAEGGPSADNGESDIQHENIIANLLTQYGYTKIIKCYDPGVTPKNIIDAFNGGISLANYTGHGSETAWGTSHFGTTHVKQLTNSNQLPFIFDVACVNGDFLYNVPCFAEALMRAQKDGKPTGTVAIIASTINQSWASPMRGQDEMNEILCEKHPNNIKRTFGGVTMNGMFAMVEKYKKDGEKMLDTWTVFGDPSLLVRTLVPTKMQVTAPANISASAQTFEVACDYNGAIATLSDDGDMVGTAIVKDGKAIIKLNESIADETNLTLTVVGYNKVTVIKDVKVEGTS

One experiment addresses T1, RgpB (Porphyromonas gingivalis, UniProt P95493).
T1 construct: 0.02 nM RgpB, isolated from culture of Porphyromonas gingivalis; endogenous in cells
As to the kind of experiment: RgpB inhibition, fluorogenic assay. The experiment is classed as biochemical. Particulars: Activity (RgpB IC50), 0.02 nM RgpB, 10 μM Boc-Phe-Ser-Arg-MCA, 90 minutes, 37° C., pH=7.5. The protocol:
The capacities of compounds of the present invention to inhibit the activity of RgpB were measured in a fluorogenic assay similar to those described in Barret Biochemical Journal. 1980, 187(3), 909. The specific assay conditions were as follows. Buffer: pH=7.5, 100 mM Tris-HCl, 75 mM NaCl, 2.5 mM CaCl2, 10 mM cysteine, 1% DMSO after all additions. Protein: 0.02 nM RgpB, isolated from culture of Porphyromonas gingivalis, as described in Pike et al. J. Biol. Chem. 1994, 269(1), 406, and Potempa and Nguyen. Current Protocols in Protein Scienc. 2007, 21.20.1-21.20.27. Fluorogenic substrate: 10 μM Boc-Phe-Ser-Arg-MCA. Time=90 minutes. Temperature=37° C. Each compound: 10 concentrations, starting at either 100 μM or 100 nM, with lower concentrations generated by serial 3-fold dilutions. By testing a range of concentrations for each compound, the concentration required to inhibit the activity of RgpB by 50% (the “IC50”) was determined.
On to `N#CN1CCCC(Oc2ccnc(N)c2)C1` (stereo not shown) [Compound 9, 3-((2-aminopyridin-4-yl)oxy)piperidine-1-carbonitrile], for which the IC50 lay in the range of 0.1 to 1 µM.
Molecule `CC(c1ccc2c(N)nccc2c1)N(C)C#N` (stereo not shown) [Compound 46, N-(1-(1-aminoisoquinolin-6-yl)ethyl)-N-methylcyanamide] came in with an IC50 of 1 to 10 µM.
In turn, `N#CN1CCC[C@H]1COc1cc(N)ncc1Cl` [Compound 41, (S)-2-(((2-amino-5-chloropyridin-4-yl)oxy)methyl)pyrrolidine-1-carbonitrile] displayed an IC50 of 10 to 100 µM.
As to `N#CN1CCCC1CCOc1ccnc(N)c1` (stereo not shown) [Compound 16, 2-(2-((2-aminopyridin-4-yl)oxy)ethyl)pyrrolidine-1-carbonitrile], the IC50 was in the range of 10 to 100 µM.
Consider `CC(C)C(COc1ccnc(N)c1)N(C)C#N` (stereo not shown) [Compound 34, N-(1-((2-aminopyridin-4-yl)oxy)-3-methylbutan-2-yl)-N-methylcyanamide], for which the IC50 fell in the range of 1 to 10 µM.
On to `COC(C)(C)C(=O)NC(Cc1ccnc(N)c1)C(=O)COc1ccon1` (stereo not shown) [Compound 63, N-(1-(2-aminopyridin-4-yl)-4-(isoxazol-3-yloxy)-3-oxobutan-2-yl)-2-methoxy-2-methylpropanamide], for which the IC50 lay within 1 to 10 µM.
Molecule `N#CN1CCC[C@@H]1COc1ccnc(N)c1` [Compound 20, (R)-2-(((2-aminopyridin-4-yl)oxy)methyl)pyrrolidine-1-carbonitrile] gave an IC50 of 1 to 10 µM.
In the case of `CN(C#N)c1ccc2ccnc(N)c2c1` [Compound 1, N-(1-aminoisoquinolin-7-yl)-N-methylcyanamide], the IC50 is more than 100 µM.
On to `N#CN1CCC[C@H]1COc1cc(N)ncc1Br` [Compound 30, (S)-2-(((2-amino-5-bromopyridin-4-yl)oxy)methyl)pyrrolidine-1-carbonitrile], for which the IC50 lay in the range of 10 to 100 µM.
Turning to `Nc1ccc(C[C@@H](NC(=O)C2CCCC2)C(=O)COc2c(F)c(F)cc(F)c2F)cn1` [Compound 57, (R)—N-(1-(6-aminopyridin-3-yl)-3-oxo-4-(2,3,5,6-tetrafluorophenoxy)butan-2-yl)cyclopentanecarboxamide], the IC50 is less than 0.1 µM.
For the molecule `CC(CN(C)C#N)Oc1ccnc(N)c1` (stereo not shown) [Compound 15, N-(2-((2-aminopyridin-4-yl)oxy)propyl)-N-methylcyanamide], the IC50 was 0.1 to 1 µM.
On to `N#CN1CC(Oc2ccnc(N)c2)C1` [Compound 7, 3-((2-aminopyridin-4-yl)oxy)azetidine-1-carbonitrile], for which the IC50 is more than 100 µM.
On the same count and under the same terms, in the case of `N#CN1C[C@@H](O)C[C@H]1c1ccc2c(N)nccc2c1` [Compound 50a, (2S,4S)-2-(1-aminoisoquinolin-6-yl)-4-hydroxypyrrolidine-1-carbonitrile] it was less than 0.1 µM.
On the same count and under the same terms, in the case of `COC(C)(C)C(=O)NC(Cc1ccc(N)nc1)C(=O)COc1c(F)ccc(F)c1F` (stereo not shown) [Compound 62, N-(1-(6-aminopyridin-3-yl)-3-oxo-4-(2,3,6-trifluorophenoxy)butan-2-yl)-2-methoxy-2-methylpropanamide] it was 0.1 to 1 µM; in that of `N#CN1CCCCC1COc1ccnc(N)c1` (stereo not shown) [Compound 12, 2-(((2-aminopyridin-4-yl)oxy)methyl)piperidine-1-carbonitrile], 0.1 to 1 µM; in that of `COC(C)(C)C(=O)NC(Cc1ccc(N)nc1)C(=O)COc1c(F)c(F)cc(F)c1F` (stereo not shown) [Compound 60, N-(1-(6-aminopyridin-3-yl)-3-oxo-4-(2,3,5,6-tetrafluorophenoxy)butan-2-yl)-2-methoxy-2-methylpropanamide], less than 0.1 µM.
As to `N#CN1CCC1COc1ccnc(N)c1` (stereo not shown) [Compound 11, 2-(((2-aminopyridin-4-yl)oxy)methyl)azetidine-1-carbonitrile], the IC50 is more than 100 µM.
In turn, `N#CN1CCN(c2ccnc(N)c2)CC1` [Compound 33, 4-(2-aminopyridin-4-yl)piperazine-1-carbonitrile] returned an IC50 of 1 to 10 µM.
On to `CNc1nccc2cc([C@H]3CCCN3C#N)ccc12` [Compound 51b, (R)-2-(1-(methylamino)isoquinolin-6-yl)pyrrolidine-1-carbonitrile], for which the IC50 was in the range of 10 to 100 µM.
`CN(C#N)C(COc1ccnc(N)c1)c1ccccc1` (stereo not shown) [Compound 36, N-(2-((2-aminopyridin-4-yl)oxy)-1-phenylethyl)-N-methylcyanamide]: the concentration for half-maximal inhibition (IC50) lay in the range of 1 to 10 µM.
`Nc1ccc(CC(NC(=O)C2CCCC2)C(=O)COc2c(F)cccc2F)cn1` (stereo not shown) [Compound 67, N-(1-(6-aminopyridin-3-yl)-4-(2,6-difluorophenoxy)-3-oxobutan-2-yl)cyclopentanecarboxamide]: the IC50 is less than 0.1 µM.
The molecule `Nc1cc(CC(NC(=O)C2CCCC2)C(=O)COc2c(F)c(F)cc(F)c2F)ccn1` (stereo not shown) [Compound 54, N-(1-(2-aminopyridin-4-yl)-3-oxo-4-(2,3,5,6-tetrafluorophenoxy)butan-2-yl)cyclopentanecarboxamide] registered an IC50 of less than 0.1 µM.
In the case of `N#CN1CCCC1CCCOc1ccnc(N)c1` (stereo not shown) [Compound 18, 2-(3-((2-aminopyridin-4-yl)oxy)propyl)pyrrolidine-1-carbonitrile], the IC50 fell in the range of 10 to 100 µM.
Molecule `N#CN1CCC[C@H]1c1ccc2c(N)nccc2c1` [Compound 44, (S)-2-(1-aminoisoquinolin-6-yl)pyrrolidine-1-carbonitrile] came in with an IC50 of 0.1 to 1 µM.
Molecule `N#CN1CCC(Oc2ccnc(N)c2)C1` (stereo not shown) [Compound 2, 3-((2-aminopyridin-4-yl)oxy)pyrrolidine-1-carbonitrile] registered an IC50 of 0.1 to 1 µM.
As for `N#CN1CCC[C@H]1CSc1ccnc(N)c1` [Compound 28, (S)-2-(((2-aminopyridin-4-yl)thio)methyl)pyrrolidine-1-carbonitrile], the IC50 lay within 1 to 10 µM.
Consider `N#CN1CCCC1CCc1ccnc(N)c1` (stereo not shown) [Compound 21, 2-(2-(2-aminopyridin-4-yl)ethyl)pyrrolidine-1-carbonitrile], for which the IC50 lay within 0.1 to 1 µM.
With `N#CN1CCC(CCOc2ccnc(N)c2)C1` (stereo not shown) [Compound 17, 3-(2-((2-aminopyridin-4-yl)oxy)ethyl)pyrrolidine-1-carbonitrile], the IC50 was in the range of 1 to 10 µM.
Turning to `Nc1ccc(CC(NC(=O)C2CCCC2)C(=O)COc2c(F)c(F)cc(F)c2F)cn1` (stereo not shown) [Compound 53, N-(1-(6-aminopyridin-3-yl)-3-oxo-4-(2,3,5,6-tetrafluorophenoxy)butan-2-yl)cyclopentanecarboxamide], the IC50 was less than 0.1 µM.
Molecule `N#CN1CCCC1COc1ccnc(N)c1` (stereo not shown) [Compound 3, 2-(((2-aminopyridin-4-yl)oxy)methyl)pyrrolidine-1-carbonitrile] came in with an IC50 of 0.1 to 1 µM.
In turn, `CN(C#N)Cc1cc2c(N)nccc2o1` [Compound 4, N-((4-aminofuro[3,2-c]pyridin-2-yl)methyl)-N-methylcyanamide] gave an IC50 of 10 to 100 µM.
With `N#CN1c2ccccc2CC1COc1ccnc(N)c1` (stereo not shown) [Compound 24, 2-(((2-aminopyridin-4-yl)oxy)methyl)indoline-1-carbonitrile], the IC50 was 10 to 100 µM.
`N#CN1CCCCC1c1ccc2c(N)nccc2c1` (stereo not shown) [Compound 37, 2-(1-aminoisoquinolin-6-yl)piperidine-1-carbonitrile]: the IC50 fell in the range of 0.1 to 1 µM.
As for `N#CN1CCC(COc2ccnc(N)c2)C1` (stereo not shown) [Compound 47, 3-(((2-aminopyridin-4-yl)oxy)methyl)pyrrolidine-1-carbonitrile], the IC50 fell in the range of 1 to 10 µM.
Consider `N#CN1C[C@@H](O)C[C@@H]1c1ccc2c(N)nccc2c1` [Compound 50b, (2R,4S)-2-(1-aminoisoquinolin-6-yl)-4-hydroxypyrrolidine-1-carbonitrile], for which the IC50 is less than 0.1 µM.
As to `N#CN1CCC[C@H]1COc1ccnc(N)c1` [Compound 19, (S)-2-(((2-aminopyridin-4-yl)oxy)methyl)pyrrolidine-1-carbonitrile], the IC50 was less than 0.1 µM.
For `Cc1cnc(N)cc1OC[C@@H]1CCCN1C#N` [Compound 29, (S)-2-(((2-amino-5-methylpyridin-4-yl)oxy)methyl)pyrrolidine-1-carbonitrile], the IC50 fell in the range of 10 to 100 µM.
Consider `Nc1cc(CC(NC(=O)C2CCCC2)C(=O)COc2c(F)cccc2F)ccn1` (stereo not shown) [Compound 55, N-(1-(2-aminopyridin-4-yl)-4-(2,6-difluorophenoxy)-3-oxobutan-2-yl)cyclopentanecarboxamide], for which the IC50 is less than 0.1 µM.
Same read-out and setting: with `Nc1cc(CCC(NC(=O)C2CCCC2)C(=O)COc2ccon2)ccn1` (stereo not shown) [Compound 71, N-(5-(2-aminopyridin-4-yl)-1-(isoxazol-3-yloxy)-2-oxopentan-3-yl)cyclopentanecarboxamide] the figure was 0.1 to 1 µM; with `Nc1cc(CC(NC(=O)C2CCCC2)C(=O)COc2ccon2)ccn1` (stereo not shown) [Compound 70, N-(1-(2-aminopyridin-4-yl)-4-(isoxazol-3-yloxy)-3-oxobutan-2-yl)cyclopentanecarboxamide], 0.1 to 1 µM.
On to `CC(C)N(C#N)CCCc1ccnc(N)c1` [Compound 6, N-(3-(2-aminopyridin-4-yl)propyl)-N-isopropylcyanamide], for which the half-maximal inhibitory concentration (IC50) lay in the range of 10 to 100 µM.

The same experiment, now with this note: Activity (RgpB IC50), compound not tested above 1 μM; 0.02 nM RgpB, 10 μM Boc-Phe-Ser-Arg-MCA, 90 minutes, 37° C.
`CN(C)c1nccc2cc([C@@H]3CCCN3C#N)ccc12` [Compound 52a, (S)-2-(1-(dimethylamino)isoquinolin-6-yl)pyrrolidine-1-carbonitrile] gave an IC50 of more than 1 µM.
Take `CN(C)c1nccc2cc([C@H]3CCCN3C#N)ccc12` [Compound 52b, (R)-2-(1-(dimethylamino)isoquinolin-6-yl)pyrrolidine-1-carbonitrile]: the IC50 is more than 1 µM.
